Common to all, as to assay: inhibition of tumour cell growth, NCI panel, 48 h
Experiment [1] has as its system OVCAR-8 ovarian.
Experiment [2] has as its system IGROV1 ovarian.
Experiment [3] has as its system ACHN renal.
Experiment [4] relates to NCI-H460 lung.
The subject of experiment [5] is HOP-92 NSCLC.
For experiment [6], the system named is UACC-257 melanoma.
For experiment [7], the system named is RXF 393 renal.
For experiment [8], the system named is KM12 colon.
Experiment [9] deals with NCI-H226 lung.
The test system of experiment [10] is HL-60(TB) leukemia.

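Method: 48-hour compound exposure of cells in 96-well plates, five concentrations, linear interpolation of endpoints. TGI marks complete inhibition of growth.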

Take `Clc1ccc(CCNCCNC2(c3cc4ccccc4s3)CCCCC2)cc1Cl`: the TGI came out at 3.54 µM in [1]; 3.24 µM in [2]; 3.1 µM in [3]; 3.16 µM in experiment [4]; 3.15 µM in experiment [5]; 3.29 µM in [6]. The TGI in experiment [7] turned out to be 4 µM; in experiment [8], 3.1 µM; in experiment [9], 3.64 µM.

`Cc1cc2nc3c(C)c4ccccc4c(C)n3c2cc1C`: the TGI in experiment [1] was above 10 µM; in [2] it was above 10 µM; in [3], above 10 µM; in experiment [4], 4.84 µM; in experiment [5], 8.45 µM; in [6], above 10 µM. The TGI in experiment [7] is 8.66 µM; in experiment [8], above 10 µM; in [10] it was 6.33 µM.

As for `O=C(C#Cc1ccccc1)Nc1ccccc1CC(c1c[nH]c2ccccc12)c1c[nH]c2ccccc12`, the TGI in [1] was 39.7 µM; in [2], 98.8 µM; in experiment [6], above 100 µM; in experiment [7], 14 µM; in experiment [8], 44.4 µM; in experiment [9] it was 35.2 µM.

With `Cc1ccc(S(=O)(=O)N(CC(O)COc2ccccc2)c2ccccc2Cl)cc1` (configuration not stated), the TGI worked out at 33.5 µM in [1]; 25.1 µM in [2]; 33.7 µM in [3]; 36.2 µM in experiment [4]; 29.3 µM in [6]; 32 µM in [7]. Moreover, the values for the TGI in experiment [8], in experiment [9] and in experiment [10] were 30.5 µM, 32.3 µM and 67.8 µM, respectively.

As for `Nc1nc2c(nnn2C2C=C(CO)C(O)C2O)c(=O)[nH]1` (configuration not stated), the TGI in experiment [1], in [2], in experiment [3], in experiment [4], in [5] and in experiment [6] was above 100 µM throughout. Also, the TGI in experiment [7], in [8] and in experiment [9] was above 100 µM in each case.

With `C#CCN(Cc1ccc2nc(-c3ccccc3)c(Cl)nc2c1)c1ccc(Cl)c(Cl)c1`, the TGI in experiment [1], in [2], in [3], in [4], in experiment [5] and in [6] was above 100 µM each time. The TGI in experiment [8] and in experiment [10] was above 100 µM in each case.

With `CCc1cc2c(cc1O)CC[C@@H]1[C@@H]2CC[C@]2(C)[C@@H](O)CC[C@@H]12`, the TGI amounted to 22.4 µM in experiment [1]; 28.4 µM in experiment [2]; 22.9 µM in experiment [3]; 20.9 µM in experiment [4]; 20 µM in experiment [6]; 17.4 µM in [8]. Also, the results for the TGI in [9] and in experiment [10] were 26.6 µM and 7.66 µM, respectively.

In the case of `Nc1ccc(Oc2ccc(C34CC5CC(C3)CC(c3ccc(Oc6ccc(N)c(O)c6)cc3)(C5)C4)cc2)cc1O`, the TGI in experiment [1] worked out at 4.86 µM; in experiment [2] it was 3.04 µM; in [3], 3.5 µM; in experiment [4], 3.37 µM; in [5] it was 4.48 µM; in experiment [6], 4.72 µM. Further, the TGI in experiment [7] is 3.33 µM; in [8], 3.62 µM; in [9], 9.93 µM.

In the case of `Cn1cnc([N+](=O)[O-])c1Sc1nnc(-c2ccc(Cl)cc2)n1C`, the TGI in experiment [1] amounted to 46 µM; in experiment [2], 32.7 µM; in [3], 29.3 µM; in experiment [4], 55.7 µM; in [5], 25.8 µM; in [6], 25.5 µM. The TGI in experiment [7] stood at 17 µM; in [8] it was 49.9 µM; in experiment [9] it was 65.9 µM.

With `CC(=O)O[C@H]1C(=O)[C@@]2(C)C(C(OC(=O)c3ccccc3)[C@]3(O)CC(OC(=O)C(O)C(NC(=O)c4cccc(Cl)c4)c4ccccc4)C(C)=C1C3(C)C)[C@]1(OC(C)=O)CO[C@@H]1C[C@@H]2O` (some centres not stated), the TGI in [1], in experiment [2], in experiment [3], in experiment [4], in experiment [5] and in experiment [6] was above 10 µM each time. In addition, the figures for the TGI in [8], in experiment [9] and in experiment [10] were above 10 µM, above 10 µM and 0.419 µM, respectively.

With `C#CCN1C(=O)CN2C(Cl)(Cl)C2(c2ccccc2)c2cc(Cl)ccc21` (configuration not stated), the TGI in experiment [1], in experiment [3], in experiment [4], in experiment [5], in experiment [6] and in [7] was above 100 µM in each case. For the same compound, the TGI in experiment [8] is 94 µM; in experiment [9] it was above 100 µM.

Take `COC(=O)c1cc(NC(=O)Cn2c3ccccc3c3ccccc32)cn1C`: the TGI in experiment [1], in [2], in [3], in experiment [4], in experiment [6] and in [7] was above 100 µM in each case. Moreover, the TGI in experiment [8] was above 100 µM; in experiment [9], 58.5 µM; in experiment [10], above 100 µM.

`N#Cc1ccccc1C#C/C=C\C#Cc1ccccn1`: the TGI was 30.3 µM in experiment [1]; 36.7 µM in experiment [2]; above 100 µM in experiment [3]; 44.3 µM in experiment [4]; above 100 µM in experiment [5]; 28.8 µM in experiment [6]. For the same compound, the TGI in experiment [7] stood at 33.1 µM; in experiment [8], 29.6 µM; in experiment [10] it was 63.6 µM.

`O=C(O)Cn1cnc2c(=O)[nH]c(Nc3ccccc3)nc21`: the TGI in [1], in experiment [2], in experiment [3], in [4], in [5] and in experiment [6] was above 100 µM throughout. Besides, the TGI in [8] and in experiment [9] was above 100 µM in each case.

Turning to `O=C1C2=C(c3ccccc31)C(c1ccc([N+](=O)[O-])cc1)NC(=S)N2` (configuration not stated), the TGI in experiment [2], in [3], in experiment [4], in experiment [5], in experiment [6] and in experiment [8] was above 100 µM each time. Also, the TGI in experiment [9] and in experiment [10] was above 100 µM in each case.

Values taken from PubChem BioAssay (NCI).
